Measurements published in patent US20090082455A1, “THERAPEUTIC AGENT FOR OPHTHALMIC DISEASE” (ONO PHARMACEUTICAL CO. LTED, priority 2005, published 2009).
Entries after “also recorded” stand apart in the source; their conditions may differ. Counter-ions that a name gives are not always drawn. Like-named read-outs stand apart in the source and are kept apart here.

What was measured:
Type in all cases: in vivo
[1] = Single intravenous administration toxicity test in dogs; settings: 100 mg/kg, single i.v.
Text: Since toxicity of (2R)-2-propyloctanoic acid, a salt thereof or prodrug thereof is low, it can be considered to be sufficiently safe for medicinal uses.

GFAP-positive cells = experiment: Rat retinal ischemia model: GFAP-positive cell number and area (GFAP staining); settings: for Effect on changes in number of GFAP-positive cells / Effect on increases in GFAP positive areas: result in words; for inhibition at 10 mg/kg: Rattus norvegicus, iv; for Number of GFAP positive cells, A2 (mean): point A2 (optic nerve papilla); for Area of GFAP positive cells, A2 (mean): point A2; for Area of GFAP positive cells, A3 (mean) / Number of GFAP positive cells, A3 (mean): point A3; for Area of GFAP positive cells, A4 (mean): point A4 (optic nerve)
Procedure: (§1) A 27 G injection needle (4) was attached to an end of the tube. A part about 20 cm below the bottom end of the perfusion line was attached to a supporting bar and the part was lightly fixed by a stand.
(§2) A rat (Crj:CD(SD) IGS, from CHARLES RIVER LABORATORIES JAPAN, Inc.) was anesthetized with pentobarbital sodium (40 mg/kg, i.p.) and the pupil of the eye to be operated were preliminarily dilated by using a mydriasis agent (MYDRIN P; manufactured by SANTEN PHARMACEUTICAL Co., Ltd.).
(§3) Before the surgical operation, the bottle (1) was held up so that the water surface in the perfusion bottle was located on 163.5 cm above the rat eyes in the state of closing the perfusion line (loading an intraocular pressure of […]). After opening the top end, the perfusion line was connected to a differential pressure transducer and the height was adjusted to give a predetermined pressure, followed by closing the line. With confirming the mydriasis under a stereoscopic microscope, the stopper of the perfusion line was loosened and the solution was dropped little by little from the needle point. As the cornea was tightly sandwiched between tweezers and an injection needle (4), the injection needle (4) was punctured into the anterior chamber (5) from the nasal side. Next, the perfusion line was opened to load pressure in the anterior chamber (5). After loading the ischemia for 60 minutes, the injection needle (4) was taken off and the animals were awaken out of the anesthesia with keeping the body temperature at 37° C. In the sham-ischemia group, an injection needle was punctured into the anterior chamber from the nasal side in the state of closing the perfusion line, followed by taking off after 60 minutes.
(§4) (2R)-2-propyloctanoic acid was intravenously administered via the tail vein in a dose of 10 mg/mL/kg once a day for 7 days from the day of the ischemic operation. Dizocilpine maleate ((+)-MK-801 maleate, hereinafter referred to simply as “MK-801”) which is a positive control compound was intravenously administered via the tail vein in a dose of 10 mg/mL/kg once alone 30 minutes before the ischemic operation.
(§5) A rat was anesthetized with pentobarbital sodium (40 mg/kg, i.p.) and fixed at the dorsal position. After incising the subcostal skin, with grasping the xiphoid process with tweezers or a kocher, the upper end of the anterior abdominal muscle was horizontally incised with scissors. Next, after reversing the chest wall, the xiphoid process was grasped with a kocher or the chest wall was grasped with a kocher to expose the heart. The heart was grasped with tweezers and the left ventricular was incised with scissors. Then, the front end of a disposable oral probe for mouse connected to a blood transfusion tube was introduced from the left ventricular to the aorta and the end of the oral probe was grasped with a clamp. The atrial auricula was incised and perfused with physiological saline containing heparin (10 U/mL). The blood transfusion tube and the disposable oral probe for mouse were replaced with fresh ones and perfusion with a 10% neutral formalin buffer was conducted in the same manner as described above for fixation. After fixing, both eyes were taken out, stored in a sample bottle filled with the 10% neutral formalin buffer and subjected to the following evaluation.
(§6) An ischemic eye was excised, embedded and sliced. Next, hematoxylin-eosin staining, GFAP (glial fibrillary acidic protein) staining and S100 staining by the methods as shown in the following (5-2) to (5-4) were carried out.
An anti-GFAP rabbit antibody (cat No. Z0334, DAKO) was used. […]

S100-positive cells = experiment: Rat retinal ischemia model: S100-positive cell number and area (S100 staining); settings: for Effect on increases in S100 positive areas / Effect on changes in number of S100-positive cells: result in words; for Effect on changes in number of S100-positive cells: A2 and A4 points; for inhibition at 10 mg/kg: Rattus norvegicus, S100, iv; for Area of S100 positive cells, A1 (mean): point A1; for Area of S100 positive cells, A2 (mean) / Number of S100 positive cells, A2 (mean): point A2; for Area of S100 positive cells, A3 (mean): point A3; for Area of S100 positive cells, A4 (mean) / Number of S100 positive cells, A4 (mean): point A4 (optic nerve)
Procedure: as §1, §2, §3, §4, §5, §6
An anti-S 100 rabbit antibody (cat No. Z0311, DAKO) was used. […]

GCL cells = experiment: Rat retinal ischemia model: number of GCL cells (HE staining); settings: 10 mg/kg i.v.; for Effect on decrease in number of optic nerve cells / optic nerve cell death caused by ischemia: result in words; for Number of GCL cells, A1 (mean): retina point A1, 2 mm from optic nerve papilla; for Number of GCL cells, A1 (mean) / Number of GCL cells, A3 (mean) / Number of GCL cells, A1 + A3 (mean): 60 min ischemia; for Number of GCL cells, A3 (mean): retina point A3, 2 mm from optic nerve papilla; for Number of GCL cells, A1 + A3 (mean): sum of A1 and A3; for Inhibitory rate of decrease in number of optic nerve cells, A1+A3: sum of A1 and A3 data
Procedure: as §1, §2, §3, §4, §5, §6
(1) deparaffinization; (2) water washing; (3) nuclear staining with hematoxylin for 20 minutes; (4) water washing and color development for 10 minutes; (5) eosin for 3 minutes; and (6) dehydration→penetration→enclosure.
Using HE-stained samples thus obtained, GCL cells at two points (A1, A3; refer to FIG. 2) on the retina which are 2 mm apart from the optic nerve papilla (A2) were counted (cells/mm^2).

SMILES | Effect on changes in number of GFAP-positive cells (GFAP-positive cells; 10 mg/kg i.v.) | Effect on increases in GFAP positive areas (GFAP-positive cells; 10 mg/kg i.v.) | Area of GFAP positive cells, A1 (mean) (GFAP-positive cells; point A1, 10 mg/kg i.v.) | Number of GFAP positive cells, A1 (mean) (GFAP-positive cells; point A1, 10 mg/kg i.v.) | Number of GFAP positive cells, A2 (mean) (GFAP-positive cells; 10 mg/kg i.v.) | Area of GFAP positive cells, A2 (mean) (GFAP-positive cells; 10 mg/kg i.v.) | Area of GFAP positive cells, A3 (mean) (GFAP-positive cells; 10 mg/kg i.v.) | Number of GFAP positive cells, A3 (mean) (GFAP-positive cells; 10 mg/kg i.v.) | Area of GFAP positive cells, A4 (mean) (GFAP-positive cells; 10 mg/kg i.v.) | Effect on increases in S100 positive areas (S100-positive cells; 10 mg/kg i.v.) | Effect on changes in number of S100-positive cells (S100-positive cells; 10 mg/kg i.v.) | Area of S100 positive cells, A1 (mean) (S100-positive cells; 10 mg/kg i.v.) | Area of S100 positive cells, A2 (mean) (S100-positive cells; 10 mg/kg i.v.) | Number of S100 positive cells, A2 (mean) (S100-positive cells; 10 mg/kg i.v.) | Area of S100 positive cells, A3 (mean) (S100-positive cells; 10 mg/kg i.v.) | Area of S100 positive cells, A4 (mean) (S100-positive cells; 10 mg/kg i.v.) | Number of S100 positive cells, A4 (mean) (S100-positive cells; 10 mg/kg i.v.) | Effect on decrease in number of optic nerve cells / optic nerve cell death caused by ischemia (GCL cells) | Number of GCL cells, A1 (mean) (GCL cells) | Number of GCL cells, A3 (mean) (GCL cells) | further results
CCCCCC[C@@H](CCC)C(=O)O [(2R)-2-propyloctanoic acid] | showed inhibitory effects | showed inhibitory effects | 4.2 % AREA | 52.6 cells/mm^2 | 317.9 cells/mm^2 | 10.1 % AREA | 4.2 % AREA | 52.9 cells/mm^2 | 16.8 % AREA | showed inhibitory effects | showed an inhibitory effect | 1.9 % AREA | 3.5 % AREA | 295.4 cells/mm^2 | 1.6 % AREA | 3.3 % AREA | 307.7 cells/mm^2 | showed inhibitory effects; also recorded: remarkable effect of inhibiting optic nerve cell death | 116.4 cells/mm^2 | 129.9 cells/mm^2 | Lethality after single intravenous administration [1]: no fatal case was observed; inhibition at 10 mg/kg (GFAP-positive cells; point A1, 10 mg/kg i.v., read-out: Inhibitory rate of change in number of GFAP-positive cells at point A1): 69%; inhibition at 10 mg/kg (GFAP-positive cells; point A1 as printed, 10 mg/kg i.v., read-out: Inhibitory rate of increase in GFAP positive area at the point A1): 87.8%; inhibition at 10 mg/kg (S100-positive cells; point A4, 10 mg/kg i.v., read-out: Inhibitory rate of increase in S100 positive area at point A4): 93.9%; inhibition at 10 mg/kg (S100-positive cells; point A4, 10 mg/kg i.v., read-out: Inhibitory rate of increase in number of S100-positive cells at point A4): 31.2%; Number of GCL cells, A1 + A3 (mean) (GCL cells): 246.3 cells/mm^2; Inhibitory rate of decrease in number of optic nerve cells, A1+A3 (GCL cells): 52.1%
C[C@]12N[C@H](Cc3ccccc31)c1ccccc12 [MK-801, Dizocilpine maleate, reference compound] | showed inhibitory effects | showed inhibitory effects | 3.4 % AREA | 47.8 cells/mm^2 | 275.3 cells/mm^2 | 11.0 % AREA | 3.6 % AREA | 56.8 cells/mm^2 | 17.9 % AREA | showed inhibitory effects | showed an inhibitory effect exclusively on the increase in the number of S100-positive cells at the A2 point | 1.9 % AREA | 3.8 % AREA | 212.9 cells/mm^2 | 2.1 % AREA | 6.8 % AREA | 600.2 cells/mm^2 | showed inhibitory effects | 125.1 cells/mm^2 | 134.9 cells/mm^2 | inhibition at 10 mg/kg (GFAP-positive cells; read-out: Inhibitory rate of change in number of GFAP-positive cells at point A1): 42.9%; inhibition at 10 mg/kg (GFAP-positive cells; read-out: Inhibitory rate of increase in GFAP positive area at the point A1): 78.3%; inhibition at 10 mg/kg (S100-positive cells; read-out: Inhibitory rate of increase in S100 positive area at point A4): 51.2%; Number of GCL cells, A1 + A3 (mean) (GCL cells): 260.0 cells/mm^2; Inhibitory rate of decrease in number of optic nerve cells, A1+A3 (GCL cells): 59.5%
